# Patent US20220380829A1, “Method of Diagonosizing Pathogens and their Antimicrobial Susceptibility” (HANGZHOU DIAN MEDICAL LABORATORY CO., LTD., priority 2019, published 2022)
# Experiments:
# Type in all cases: cell-based
# Candida tropicalis = test: Broth microdilution (M27-A3, M27-S4), gold standard culture-based AST
# Enterococcus faecalis = test: VITEK2 Compact AST (AST-P639 cards), gold standard culture-based AST; also: key: ‘R’ indicates drug-resistant; ‘S’ indicates drug-susceptible
# Streptococcus pneumoniae = test: VITEK2 Compact AST (AST-GP68 cards) with penicillin disc diffusion, gold standard culture-based AST; also: key: ‘R’ indicates drug-resistant; ‘S’ indicates drug-susceptible
# Protocol: Step 1. Drug susceptibility verification: The Streptococcus pneumoniae isolates were tested for drug susceptibility using bioMérieux Vitek2 Compact System and AST-GP68 cards, and specifically, the susceptibility of penicillin was double checked by disc diffusion method (OXOID, CT0043B), and the combined results were used as the gold standard (culture-based AST).
# Step 1. Sample collection and drug susceptibility verification: 48 clinical Streptococcus pneumoniae isolates were collected from 18 hospitals across china in a period between May 2017 and October 2019. All isolates were tested for drug susceptibility using bioMérieux Vitek2 Compact System and AST-GP68 card, and specifically, the susceptibility of penicillin was double checked by disc diffusion method (OXOID, CT0043B), and the combined results were used as the gold standard (culture-based AST).
# [1] = Resistance profile classification A
# [2] = Resistance profile classification B
# [3] = Resistance profile classification C
# [4] = Resistance profile classification D
# [5] = Resistance profile classification F (first line so labelled, r12)
# [6] = Resistance profile classification F (second line so labelled, r13)
# [7] = Resistance profile classification G
# [8] = Resistance profile classification H
# [9] = Resistance profile classification I
# [10] = Resistance profile classification J
# [11] = Resistance profile classification K
# [12] = Resistance profile classification L
# [13] = Resistance profile classification M
# [14] = Resistance profile classification S
SMILES,Resistance profiles by broth microdilution (the gold standard) (Candida tropicalis; blind-1),Resistance profiles by broth microdilution (the gold standard) (Candida tropicalis; blind-2),Resistance profiles by broth microdilution (the gold standard) (Candida tropicalis; blind-3),Resistance profiles by broth microdilution (the gold standard) (Candida tropicalis; blind-4),Resistance profiles by broth microdilution (the gold standard) (Candida tropicalis; blind-5),Resistance profiles by broth microdilution (the gold standard) (Candida tropicalis; blind-6),Susceptibility of Emterococcus faecalis to 11 antibacterial drugs (Enterococcus faecalis; [1]),Susceptibility of Emterococcus faecalis to 11 antibacterial drugs (Enterococcus faecalis; [2]),Susceptibility of Emterococcus faecalis to 11 antibacterial drugs (Enterococcus faecalis; [3]),Susceptibility of Emterococcus faecalis to 11 antibacterial drugs (Enterococcus faecalis; [4]),Susceptibility of Emterococcus faecalis to 11 antibacterial drugs (Enterococcus faecalis; [7]),Susceptibility of Emterococcus faecalis to 11 antibacterial drugs (Enterococcus faecalis; [8]),Susceptibility of Emterococcus faecalis to 11 antibacterial drugs (Enterococcus faecalis; [9]),Susceptibility of Emterococcus faecalis to 11 antibacterial drugs (Enterococcus faecalis; [10]),Susceptibility of Emterococcus faecalis to 11 antibacterial drugs (Enterococcus faecalis; [11]),Susceptibility of Emterococcus faecalis to 11 antibacterial drugs (Enterococcus faecalis; [12]),Susceptibility of Emterococcus faecalis to 11 antibacterial drugs (Enterococcus faecalis; [13]),Susceptibility of Emterococcus faecalis to 11 antibacterial drugs (Enterococcus faecalis; [14]),Blind 1 by AST (Streptococcus pneumoniae),blind 2 by AST (Streptococcus pneumoniae),other results
Nc1nc(=O)[nH]cc1F [5-FC],S,S,S,S,S,S,–,–,–,–,–,–,–,–,–,–,–,–,–,–,–
C[C@@H]1[C@H](O)[C@@H](C)/C=C/C=C/C=C/C=C/C=C/C=C/C=C/[C@H](O[C@@H]2O[C@H](C)[C@@H](O)[C@H](N)[C@@H]2O)C[C@@H]2O[C@](O)(C[C@@H](O)C[C@@H](O)[C@H](O)CC[C@@H](O)C[C@@H](O)CC(=O)O[C@H]1C)C[C@H](O)[C@H]2C(=O)O [AMB],S,S,S,S,S,S,–,–,–,–,–,–,–,–,–,–,–,–,–,–,–
CC[C@H](C)C[C@H](C)CCCCCCCCC(=O)N[C@H]1C[C@@H](O)[C@@H](NCCN)NC(=O)[C@@H]2[C@@H](O)CCN2C(=O)[C@H]([C@H](O)CCN)NC(=O)[C@H]([C@H](O)[C@@H](O)c2ccc(O)cc2)NC(=O)[C@@H]2C[C@@H](O)CN2C(=O)[C@H]([C@@H](C)O)NC1=O [CAS],S,S,S,S,S,S,–,–,–,–,–,–,–,–,–,–,–,–,–,–,–
CCC(C)n1ncn(-c2ccc(N3CCN(c4ccc(OCC5COC(Cn6cncn6)(c6ccc(Cl)cc6Cl)O5)cc4)CC3)cc2)c1=O (centres unmarked) [ITR],R,S,R,R,S,S,–,–,–,–,–,–,–,–,–,–,–,–,–,–,–
C[C@@H](c1ncncc1F)[C@](O)(Cn1cncn1)c1ccc(F)cc1F [VOR],R,S,R,R,S,S,–,–,–,–,–,–,–,–,–,–,–,–,–,–,–
CC[C@H]1OC(=O)[C@H](C)[C@@H](O[C@H]2C[C@@](C)(OC)[C@@H](O)[C@H](C)O2)[C@H](C)[C@@H](O[C@@H]2O[C@H](C)C[C@H](N(C)C)[C@H]2O)[C@](C)(O)C[C@@H](C)C(=O)[C@H](C)[C@@H](O)[C@]1(C)O [erythromycin],–,–,–,–,–,–,R,R,R,S,R,R,R,R,S,S,S,S,R,R,Susceptibility of Emterococcus faecalis to 11 antibacterial drugs (Enterococcus faecalis; [5]): R; Susceptibility of Emterococcus faecalis to 11 antibacterial drugs (Enterococcus faecalis; [6]): R
C[C@H]1COc2c(N3CCN(C)CC3)c(F)cc3c(=O)c(C(=O)O)cn1c23 [levofloxacin],–,–,–,–,–,–,R,R,R,R,R,S,R,S,R,R,S,8,S,S,Susceptibility of Emterococcus faecalis to 11 antibacterial drugs (Enterococcus faecalis; [5]): S; Susceptibility of Emterococcus faecalis to 11 antibacterial drugs (Enterococcus faecalis; [6]): S
CC(=O)NC[C@H]1CN(c2ccc(N3CCOCC3)c(F)c2)C(=O)O1 [linezolid],–,–,–,–,–,–,S,S,S,S,S,S,S,S,S,S,S,S,S,S,–
CN(C)[C@@H]1C(O)=C(C(N)=O)C(=O)[C@@]2(O)C(O)=C3C(=O)c4c(O)cccc4[C@@](C)(O)[C@H]3C[C@@H]12 [tetracycline],–,–,–,–,–,–,R,S,S,S,R,R,S,R,R,S,R,S,R,R,Susceptibility of Emterococcus faecalis to 11 antibacterial drugs (Enterococcus faecalis; [5]): S; Susceptibility of Emterococcus faecalis to 11 antibacterial drugs (Enterococcus faecalis; [6]): R; Susceptibility of Streptococcus pneumoniae to 14 antibacterial drugs (Streptococcus pneumoniae; [1]): R; Susceptibility of Streptococcus pneumoniae to 14 antibacterial drugs (Streptococcus pneumoniae; [2]): R; Susceptibility of Streptococcus pneumoniae to 14 antibacterial drugs (Streptococcus pneumoniae; [3]): S; Susceptibility of Streptococcus pneumoniae to 14 antibacterial drugs (Streptococcus pneumoniae; [4]): S; Susceptibility of Streptococcus pneumoniae to 14 antibacterial drugs (Streptococcus pneumoniae; Resistance profile classification E): S; Susceptibility of Streptococcus pneumoniae to 14 antibacterial drugs (Streptococcus pneumoniae; Resistance profile classification F): S; Susceptibility of Streptococcus pneumoniae to 14 antibacterial drugs (Streptococcus pneumoniae; [7]): S; Susceptibility of Streptococcus pneumoniae to 14 antibacterial drugs (Streptococcus pneumoniae; [8]): S; Susceptibility of Streptococcus pneumoniae to 14 antibacterial drugs (Streptococcus pneumoniae; [9]): S; Susceptibility of Streptococcus pneumoniae to 14 antibacterial drugs (Streptococcus pneumoniae; [10]): R; Susceptibility of Streptococcus pneumoniae to 14 antibacterial drugs (Streptococcus pneumoniae; [14]): S
CN[C@H](CC(C)C)C(=O)N[C@H]1C(=O)N[C@@H](CC(N)=O)C(=O)N[C@H]2C(=O)N[C@H]3C(=O)N[C@H](C(=O)N[C@H](C(=O)O)c4cc(O)cc(O)c4-c4cc3ccc4O)[C@H](O)c3ccc(c(Cl)c3)Oc3cc2cc(c3O[C@@H]2O[C@H](CO)[C@@H](O)[C@H](O)[C@H]2O[C@H]2C[C@](C)(N)[C@H](O)[C@H](C)O2)Oc2ccc(cc2Cl)[C@H]1O [vancomycin],–,–,–,–,–,–,S,S,S,S,S,S,S,S,S,S,S,S,S,S,Susceptibility of Emterococcus faecalis to 11 antibacterial drugs (Enterococcus faecalis; [5]): S; Susceptibility of Emterococcus faecalis to 11 antibacterial drugs (Enterococcus faecalis; [6]): S
